Where two headings read alike, the source gives them in different places.
Experiments:
[1] = system: human DU145 prostate carcinoma cells; assay: Cell growth assay, human DU145 prostate carcinoma cells (CellTiter 96 Aqueous One, 72 h); assay type: cell-based; settings: for concentration achieving 90% of growth suppression: individual agent (FIG. 6)
Procedure: (§1) Cultures of cells, seeded in 0.1 mL medium with a density of 1,500 DU145 cells/well or 1,200 B16 cells/well in a 96-well plate, were incubated for 24 h at 37° C. in a humidified atmosphere of 5% CO2. At 24 h, the medium was decanted from each well and replaced with 0.1 mL fresh medium containing different concentrations of the test agents. Incubation continued for additional 48 h (B16) or 72 h (DU145). Following a quick rinse with 0.1 mL Hank's Balanced Salt Solution (HBSS), the 48-h (B16) or 72-h (DU145) cell populations were determined by adding 20 μL of CellTiter 96® Aqueous One Solution (Promega, Madison, Wis.) to each well; plates were held in the dark at 37° C. for 2 h and then read with a Synergy HT multi-plate reader (Biotek Instruments, Inc., Winooski, Vt.) and analyzed using the Gen5™ software (Biotek Instruments, Inc.). Absorbances from wells containing cell-free medium were used as baselines and were deducted from those of other cell-containing wells. The IC50 value is the concentration of xanthorrhizol required to suppress the net increase in cell number by 50%.
(§2) One-way analysis of variance (ANOVA) and Kruskal-Wallis tests were performed to assess the differences between groups using Prism® 7.0 software (GraphPad Software Inc., San Diego, Calif.). Differences in means were analyzed by Dunnett's multiple comparison test unless specified otherwise. Values were mean±standard error of mean (SEM). Levels of significance were designated as P<0.05. […] The constant-ratio combination design of xanthorrhizol and d-δ-tocotrienol in our study allowed automated creation of the classic isobologram by using the CompuSyn software. CI values lower than 1 indicate synergistic effect of the agents (Tallarida 2006).
Human DU145 prostate carcinoma cells were cultured in Roswell Park Memorial Institute ([…]) medium supplemented with 10% Fetal Bovine Serum (FBS; Fisher Scientific, Houston, Tex.), 1% penicillin-streptomycin (Fisher Scientific), and 0.8% gentamicin (Fisher Scientific).

[2] = system: murine B16 melanoma cells; assay: Cell growth assay, murine B16 melanoma cells (CellTiter 96 Aqueous One, 48 h); assay type: cell-based; settings: for suppression of the growth of B16 cells: P>0.05
Procedure: as §1, §2
(§3) Murine B16 melanoma cells were cultured in Dulbecco's Modified Eagle's Medium (DMEM) supplemented with 10% FBS, 1% penicillin-streptomycin and 0.8% gentamicin. For optimal growth, cells were incubated at 37° C. in a humidified atmosphere of 5% CO2. d-δ-Tocotrienol and xanthorrhizol were pre-dissolved in ethyl alcohol. All treated cultures contained 0.1% (v/v) of ethyl alcohol.

[3] = system: murine B16 melanoma cells; assay: Cell cycle analysis by flow cytometry (propidium iodide DNA content), B16 cells; assay type: cell-based; settings: 24-h; for percentage of cells at the G1 phase: mean±SEM, control 56.1±1.6%, no significant change
Procedure: Cells were seeded in 25 cm^2 flasks (Becton Dickinson Labware, Franklin Lakes, N.J.) at 1×10^6 cells (B16) per flask with 3 mL medium/flask and incubated for 24 h. Medium was then decanted and cultures were replenished with fresh medium containing the test agents that had been dissolved in ethyl alcohol. Following an additional 24-h incubation, adherent cells were harvested by trypsinization and pelleted by low speed centrifugation at 500 g for 5 min. Cell pellets were gently fixed in 1 mL of 70% ethanol-PBS mixture at −20° C. overnight and washed with PBS before 5×10^5 cells were re-suspended in 500 μL of PBS containing freshly prepared propidium iodide and RNase A (Roche Diagnostics, Indianapolis, Ind.) and incubated at 37° C. in the dark for 30 min as described (Yeganehjoo, DeBose-Boyd et al. 2017). Aliquots of 200 μL of the stained cells were analyzed for DNA content using a BD LSR Fortessa flow cytometer (BD Biosciences, San Jose, Calif.). The distribution of cells in the G1 and S phases of the cell cycle was determined using MultiCycle AV software (Phoenix Flow Systems, San Diego, Calif.).
as §3
The effect of blends of xanthorrhizol and d-δ-tocotrienol were evaluated on the cell cycle distribution of murine B16 melanoma cells (FIG. 4). At 0-h as baseline, the percentages of cells in the G1, S, and G2 phases of cell cycle were 54.1±0.7%, 27.6±0.4%, and 18.3±0.8% (mean±SEM), respectively. Following a 24-h incubation […], these percentages were relatively stable for the control group (56.1±1.6%, 32.1±0.6% and 11.7±1.9% for G1, S and G2 phases, respectively).

[4] = system: murine B16 melanoma cells; settings: McAnally, Gupta et al. 2007, read-out: previous reported IC50, concentration required to elicit 50% of growth inhibition; cited from earlier work
[5] = 16.25 μmol/L xanthorrhizol, versus control

| Compound | IC50 ([1]; DU145 cells, 72 h incubation, read-out: IC50, suppression of the proliferation of DU145 cells) [µM] | concentration achieving 90% of growth suppression ([1]; DU145 cells) [µmol/L] | suppression of the proliferation of human DU145 prostate carcinoma cells ([1]; xanthorrhizol 0-200 μmol/L) | suppression of the growth of B16 cells ([2]; 16.25 μmol/L xanthorrhizol applied individually) | IC50 ([2]; B16 cells, 48 h incubation, read-out: IC50, concentration required to elicit 50% of growth inhibition) [µM] | suppression of the proliferation of murine B16 melanoma cells ([2]; xanthorrhizol 0-200 μmol/L) | G1/S ratio, indicator of cell cycle arrest [3, 5] | percentage of cells at the S phase [3, 5] | percentage of cells at the G1 phase ([3]; 16.25 μmol/L xanthorrhizol) [%] | suppression of the growth of B16 cells ([2]; 10 μmol/L d-δ-tocotrienol applied individually) [%] | suppression of the proliferation of murine B16 melanoma cells ([2]; d-δ-tocotrienol 0-40 μmol/L) | IC50 [4] [µM] | percentage of cells at the G1 phase ([3]; 5 μmol/L d-δ-tocotrienol) [%] |
| --- | --- | --- | --- | --- | --- | --- | --- | --- | --- | --- | --- | --- | --- |
| CC(C)=CCC[C@@H](C)c1ccc(C)c(O)c1 [xanthorrhizol] | 101 | 182 | concentration-dependent suppression | approximately 15% | 65 | concentration-dependent suppression | significantly higher | decreased | 59.5±0.7 |  |  |  |  |
| CC(C)=CCC/C(C)=C/CC/C(C)=C/CC[C@]1(C)CCc2cc(O)cc(C)c2O1 [d-δ-tocotrienol] |  | 32 |  |  |  |  |  |  |  | ~12 | concentration-dependent suppression | 14 | 59.2±1.3 |
